“Also recorded” adds a separate entry of the source.
System: KIA cells
Assay: Subcutaneous KIA cell allograft in nude mice (primary tumor, lung metastasis, collagen)
Assay type: in vivo
Settings: 1 mg/kg or 3 mg/kg intraperitoneal every other day for 3 weeks
From the text: Generation of Hif1α^fl/fl mice (Ryan et al., 2000, Cancer Res 60(15):4010-5) and LSL-Kras^G12D/+Trp53^fl/fl mice has been previously described (Kirsch et al., 2007, Nat Med 13(8):992-7). These mice were crossed to create the LSL-Kras^G12D/+Trp53^fl/flHif1a^fl/fl animals. Soft tissue sarcomas were generated by intramuscular injection of a calcium phosphate precipitate of Ad-Cre (Gene Transfer Vector Core, University of Iowa). For transplant tumors 1×106 KIA (derived from LSL-Kras^G12D/+[…] tumors) were injected subcutaneously into the flanks of nu/nu mice (Charles River Laboratories). In each experiment 10 mice per experimental group were used with each mouse bearing two subcutaneous tumors. Tumors developed after 3-5 days, were monitored every other day, and animals were euthanized after 20-30 days. For in vivo lung metastasis analysis lung tissues were removed, and sections were stained with hematoxylin and eosin. Images were acquired using a Nikon SMZ800 stereoscope with a Nikon 1200F digital camera and Nikon Act-1 software. The ratio of total metastatic sarcoma foci to total lung area (% tumor burden) was determined using ImagePro 6.3 software (Media Cybernetics Inc.). Additionally, the percent of animals in the entire cohort with metastatic foci was evaluated along with total number of metastatic foci per experiment and the averae number of sarcoma lung foci per lung in each experiment. For Minoxidil injections, allografts and drug treatments were started simultaneously. Mice bearing subcutaneous KIA tumors on each flank were intraperitoneal injected with PBS, 1 mg/kg Minoxidil, or 3 mg/kg Minoxidil every other day unless the animals were euthanized, the tumors and lungs removed.
Immunohistochemistry of tissue sections with antibodies to HIF1α (Abcam) and Lectin (Vector Labs) was performed using enzymatic Avidin-Biotin Complex (ABC)-diaminobenzidine (DAB) staining (Vector Labs). Nuclei were counterstained with hematoxylin. […] Collagen was quantified using Image-Pro software. […]

overall animal health/weight: no effect; also recorded: unaffected
SMILES: Nc1cc(N2CCCCC2)nc(N)[n+]1[O-] [Minoxidil]
primary tumor volume: no effect | tumor weight (mass): no effect
